# Measurements from patent publication US20230150920A1, “SALTS AND SOLID FORMS OF 4-BROMO-2,5-DIMETHOXYPHENETHYLAMINE” (priority 2021, published 2023).
# Entries after “also recorded” stand apart in the source; their conditions may differ.
# Tests used:
# [1] = Dynamic vapor sorption/desorption (DVS), hygroscopicity; assay type: physicochemical
# Experimental: The active pharmaceutical ingredient (API), 4-bromo-2,5-dimethoxyphenethylamine hydrochloride, is characterized to evaluate its physical properties. The evaluation is performed by X-ray powder diffraction (XRPD), polarized light microscopy (PLM), differential scanning calorimetry (DSC), thermogravimetry (TG), dynamic vapor sorption/desorption (DVS), and/or solubility testing in organic solvents, water, and mixed solvent systems. XRPD data are used to assess crystallinity. PLM data are used to evaluate crystallinity and particle size/morphology. DSC data are used to evaluate melting point, thermal stability, and crystalline form conversion. TG data are used to evaluate if the API is a solvate or hydrate, and to evaluate thermal stability. DVS data are used to evaluate hygroscopicity of the API and if hydrates can be formed at high relative humidity.
# The form characterized in FIGS. 1 and 2 is designated as Form A herein. […] A sharp endotherm at 238° C. in the DSC thermogram is attributed to melting.
# [2] = Water activity slurry experiments, 2C-B HCl Form A vs Form C; assay type: physicochemical; settings: slurry of Form A at ambient temperature
# [3] = Dynamic vapor sorption (DVS) with XRPD of the post-DVS sample; assay type: physicochemical
# Experimental: Dynamic Vapor Sorption (DVS) analysis was carried out using a TA Instruments Q5000 Dynamic Vapor Sorption analyzer. The instrument was calibrated with standard weights and a sodium bromide standard for humidity. Approximately 10-25 mg of sample was loaded into a metal-coated quartz pan for analysis. The sample was analyzed at 25° C. with a maximum equilibration time of one hour in 10% relative humidity (RH) steps from 5 to 95% RH (adsorption cycle) and from 95 to 5% RH (desorption cycle). The movement from one step to the next occurred either after satisfying the equilibrium criterion of 0.01% weight change or, if the equilibrium criterion was not met, after one hour. The percent weight change values were calculated using Microsoft Excel.
# (§1) The DVS analysis was carried out using a TA Instruments Q5000 Dynamic Vapor Sorption analyzer. 13.5 mg of sample was loaded into a metal-coated quartz pan for analysis. After equilibration to 5% relative humidity (RH), the sample was analyzed at 25° C. in 10% RH steps from 5 to 95% RH (adsorption cycle) and from 95 to 5% RH (desorption cycle). The movement from one step to the next occurred either after satisfying the equilibrium criterion of 0.01% weight change in 5 minutes or, if the equilibrium criterion was not met, after 90 minutes. The percent weight change values are calculated using Microsoft Excel®.
# as §1, with “DVS analyses were” for “DVS analysis was”, “analyzer. Approximately 7-11” for “analyzer. 13.5”, “equilibration at” for “equilibration to”, “values were” for “values are”
# as §1, with “analyzer. Approximately 2” for “analyzer. 13.5”, “equilibration at” for “equilibration to”, “values were” for “values are”
# Male Sprague-Dawley rats = test: Rat elevated zero-maze model of anxiety; assay type: in vivo
# Source text: The rat zero-maze model is a refined alternative to the plus-maze, the most widely used animal model of anxiety, and consists of an elevated annular platform, divided equally into four quadrants. Two opposite quadrants are enclosed by Perspex walls on both the inner and the outer edges of the platform, while the remaining two opposite quadrants are open being enclosed only by a Perspex “lip”. Animals will show a preference for the closed areas, and avoidance of the open sections is assumed to stem from a rodent's natural aversion to open, exposed spaces. A reduction in the amount of activity on the open areas is considered to reflect an increase in anxiety (shepherd 1994). The ethologically-based behavior rearing was also assessed as an index of anxiety with a decrease in rearing indicative of an […] effect [(a) File 1985, Boissier 1976; (b) File, S. E. (1985). What can be learned from the effects of benzodiazepines on exploratory behavior? Neuroscience & Biobehavioral Reviews, 9(1), 45-54. doi:10.1016/0149-7634(85)90031-4; (c) Boissier, J. R., P. Simon and P. Soubrie. New approaches to the study of anxiety and anxiolytic drugs in animals. […]
# Subjects were weighed and tail marked before being injected. After a specified pre-treatment time, subjects were placed in a closed quadrant and a 5-min test period were recorded on videotape for subsequent analysis. […] Animals are scored as being in the open area when all four paws were in an open quadrant and in the closed area only when all four paws have passed over the open-closed divide. […]
# 30 male Sprague-Dawley rats in treatment groups of 5, was intraperitoneally dosed with either Vehicle 1 (saline) or 2C-B at 1 of 4 dose levels (0.1, 1, 2 & 5 mg/kg) or chlordiazepoxide (6 mg/kg) in 5 mL/kg injection volumes. Thirty min later at T=0, rats were individually placed in a closed arm of the zero-maze and behavior was assessed by a “blind” observer using remote video monitoring over the subsequent 5 min. […]
# Data was analysed with Statistica software (Statsoft USA version 10.0). […]
# TNF-α = test: LPS-induced TNF-α release ex vivo in whole blood of dosed rats; design: species or system rat; settings: for TNF alpha levels, LPS low dose: LPS 1 μg/mL
# Source text: The bacterial endotoxin lipopolysaccharide (LPS) induces a strong inflammatory response from normal animal immune systems. This response is triggered when LPS is recognized by the innate immune system via the Toll Like Receptor (TLR4) particularly those located on monocytes and macrophages although they are also located on a wide variety of other cell types. Stimulation of the TLR4 receptor leads to recruitment and activation of IL-1R associated kinase 1 (IRAK-1) initiating a series of signalling events in immunoregulatory pathways such as activation of NF kappa B, p38 MAP Kinase, ERK and JNK and AP-1. These changes promote gene transcription and thereby potentiate secretion of pro inflammatory factors such as TNF alpha and other cytokines (Fang et al., 2004).
# Determination of the effects of novel agents against LPS-induced TNF alpha release ex vivo provides an assessment of whether the plasma level of compound achieved after administration to whole animal is capable of affecting the inflammatory response.
# Dexamethasone disodium phosphate salt was formulated in water to a concentration of 0.6 mg free base/mL to give a dose of 3 mg free base/kg when orally administered in a 5 mL/kg dosing volume. 2C-B hydrochloride was formulated in Vehicle 1 (saline) at concentrations of […]. This provided doses of 0.1 and 1 mg/kg respectively when injected ip in 5 mL/kg dosing volumes. Ex vivo formulation
# LPS were dissolved in saline to concentrations of 0.2 and 0.6 mg/mL. This will then be diluted 10 fold in saline to give concentrations of 0.02 and 0.06 mg/mL that will provide concentrations of 1 and 3 μg/mL when 15 uL is added to 285 of whole blood (20 fold dilution).
# Twenty four male SD rats (approximately 200 g), were group housed. Animals were maintained under a 12 h light/dark cycle, where temperature and humidity are controlled. Animals were allowed free access to food and water.
# Rats were allocated to treatment groups of 6 and habituated to the test room on the day prior to the study. On the test day, rats were dosed orally with either water or dexamethasone 3 mg/kg in 5 mL/kg dosing volumes. Thirty minutes later the animals were dosed intraperitoneally with either saline or 2C-B in 5 mL/kg dosing volumes. After a further 90 minutes terminal blood samples were collected by cardiac puncture under CO2. • Three aliquots, each of 285 μL from each animal's blood sample were pipetted into separate Eppendorf tubes. • Tubes were left for 10 min • Assay tubes will then be mixed gently before adding 15 μL of saline or LPS to give final concentrations of 1 and 3 μg/ml. • After a further gentle mixing, assay tubes were placed in an incubator at 37° C. for 24 h. • At the end of this time, the whole blood aliquots were spun down to plasma. The plasma were then removed and placed in duplicate 96 well plates on dry ice. Plates were stored at −20° C. until analyzed for TNF-α after 10-fold dilution.
# The TNF-alpha content of the collected rat plasmas samples were measured using a Rat TNF-alpha Quantikine ELISA Kit (cat no RTA00).
# A 1-way ANOVA was conducted across the vehicle and 3 treatment groups (0.1 mg/kg 2C-B IP, 1 mg/kg 2C-B IP, and 3 mg/kg dexamethasone PO) independently for 3 stimulation conditions (no stimulation [saline], 1 μg/mL LPS, and 3 μg/mL LPS). […] Each group was compared to the vehicle group and a p-value for treatment determined by Fishers Least Significant Difference (LSD) test, without statistical penalty for multiple comparisons. […]
smiles,measurement,setting,value
"COc1cc(CCN)c(OC)cc1Br.Cl [Form A, 4-bromo-2,5-dimethoxyphenethylamine hydrochloride]",hygroscopicity based on DVS data,[1],slightly hygroscopic
same,Form change after moisture sorption/desorption (DVS),[1]; loses all the gained moisture,without form change
same,water activities at which the form was obtained or remained unchanged,[2]; hydrochloride,≤ 0.5
same,hygroscopicity based on DVS data,"[3]; 25° C., 5 to 95% RH",slightly hygroscopic
same,behaviour on desorption / form change by XRPD of post-DVS sample,[3]; desorption 95 to 5% RH,loses all the gained moisture without form change
"COc1cc(CCN)c(OC)cc1Br [2C-B, 4-bromo-2,5-dimethoxyphenethylamine]",frequency of rearing,"Male Sprague-Dawley rats; ip 1 mg/kg, 2 mg/kg, and 5 mg/kg doses",decreased the frequency of rearing as effectively as the benzodiazepine chlordiazepoxide
same,frequency of rearing,Male Sprague-Dawley rats; ip 5 mg/kg,greatest numerical effect
same,frequency of rearing,"Male Sprague-Dawley rats; ip 0.1, 1, 2 & 5 mg/kg, 30 min before 5-min test",significantly reduced the number of rears in a dose dependent manner; also recorded: as effective as the chlordiazepoxide control
same,"TNF alpha levels, LPS low dose",TNF-α; 0.1 mg/kg ip,no difference vs placebo
same,"TNF alpha levels, LPS low dose",TNF-α; 1 mg/kg ip,trended towards significance
same,"TNF alpha levels, high level of LPS","TNF-α; 1 mg/kg ip, LPS 3 μg/ml, 1-way ANOVA",significant decrease in TNF alpha levels
same,TNF alpha levels in the absence of LPS,"TNF-α; no stimulation (saline), 2C-B 0.1 and 1 mg/kg ip, dexamethasone 3 mg/kg po",no effect
same,amount of TNF alpha released in response to LPS,"TNF-α; pre-treatment in vivo ip, LPS 1 and 3 μg/mL",reduced the amount of TNF alpha released in response to LPS
"COc1cc(CCN)c(OC)cc1Br.Cl [Form C, 4-bromo-2,5-dimethoxyphenethylamine HCl]",water activities at which the form was obtained or remained unchanged,[2]; HCl,≥ 0.6
